Assay: Production of organic acids after fermentation in donkey milk (HPLC)
Details: absolute area, produced during fermentation, grown in donkey milk
Protocol: The production of organic acids after fermentation was determined by high-performance liquid chromatography of filtered supernatants (Vulevic, Rastall & Gibson, 2004; Nazzaro et al. 2009), using a Gold System apparatus equipped with an ultraviolet detector (Beckman, CA, USA). Samples were loaded onto a pre-packed Aminex HPX-87 column (300 7.8 mm, Bio-Rad, Hercules, Calif., USA) and eluted with […] sulphuric acid. Total running time was 40 min; flow rate was 0.6 ml/min; injection volume was 20 μl; and detection wavelength was 210 nm.
In the following tables are reported the amount of butyric acid and citric acid produced during fermentation by strains of the invention and some strains of reference, grown in donkey milk. The data are expressed in terms of absolute area (mm^2): […]

Question: With Lactobacillus acidophilus as the substance, how does the “Amount of butyric acid” value read?
Answer: 26.21 mm^2

Question: And the “Amount of citric acid” value?
Answer: 51.37 mm^2

Source: patent US20120128821A1, “PROBIOTIC MICROORGANISMS ISOLATED FROM DONKEY MILK” (EUROLACTIS GROUP SA, priority 2009, published 2012)
